Laboratory results taken from ChEMBL document CHEMBL6177955, “Design, synthesis and biological evaluation of Golgi-targeting anion transporters as inducers of Golgiphagy and apoptosis in cancer cells” (Eur J Med Chem, 2025).
The source made the active and inactive calls. No cut-off for these calls is given here.

Tests used:
Lipid bilayer [1] = assay: Vesicular anionophoric activity in large unilamellar vesicle membrane derived from egg-yolk L-alpha-phosphatidylcholine assessed as induction of relative efflux of chloride ions measured up to 300 seconds by using chloride-selective electrode
Lipid bilayer [2] = assay: Vesicular anionophoric activity in large unilamellar vesicle membrane derived from egg-yolk L-alpha-phosphatidylcholine assessed as induction of relative efflux of chloride ions in presence of lithium (Li+) measured up to 300 seconds by using chloride-selective electrode; conditions: time <= 300.0 sec
Lipid bilayer [3] = assay: Vesicular anionophoric activity in large unilamellar vesicle membrane derived from egg-yolk L-alpha-phosphatidylcholine assessed as induction of relative efflux of chloride ions in presence of sodium (Na+) measured up to 300 seconds by using chloride-selective electrode; conditions: time <= 300.0 sec
Lipid bilayer [4] = assay: Vesicular anionophoric activity in large unilamellar vesicle membrane derived from egg-yolk L-alpha-phosphatidylcholine assessed as induction of relative efflux of chloride ions in presence of potassium (K+) measured up to 300 seconds by using chloride-selective electrode; conditions: time <= 300.0 sec
Lipid bilayer [5] = assay: Vesicular anionophoric activity in large unilamellar vesicle membrane derived from egg-yolk L-alpha-phosphatidylcholine assessed as induction of relative efflux of chloride ions in presence of rubidium (Rb+) measured up to 300 seconds by using chloride-selective electrode; conditions: time <= 300.0 sec
Lipid bilayer [6] = assay: Vesicular anionophoric activity in large unilamellar vesicle membrane derived from egg-yolk L-alpha-phosphatidylcholine assessed as induction of relative efflux of chloride ions in presence of cesium (Cs+) measured up to 300 seconds by using chloride-selective electrode; conditions: time <= 300.0 sec
Lipid bilayer [7] = assay: Vesicular anionophoric activity in Bulky nitrobenzene membrane assessed as induction of relative efflux of chloride ions measured up to 100 hrs by using chloride-selective electrode
A2780 = assay: Antiproliferative activity against human A2780 cells by MTT assay; format: functional, cell-based
HepG2 [8] = assay: Antiproliferative activity against human HepG2 cells by MTT assay; format: functional, cell-based
MCF7 = assay: Antiproliferative activity against human MCF7 cells by MTT assay; format: functional, cell-based
HT-29 = assay: Antiproliferative activity against human HT-29 cells by MTT assay; format: functional, cell-based
HCT-8 = assay: Antiproliferative activity against human HCT-8 cells by MTT assay; format: functional, cell-based
HepG2 [9] = assay: Induction of apoptosis in human HepG2 cells assessed as viable cells at 5 uM measured after 24 hrs incubation by Propidium iodide/Annexin V-FITC analysis (reference value: 90.2%); format: functional; conditions: read-out: Activity
HepG2 [10] = assay: Induction of apoptosis in human HepG2 cells assessed as early apoptotic cells at 5 uM measured after 24 hrs incubation by Propidium iodide/Annexin V-FITC analysis (reference value: 2.90%); format: functional
HepG2 [11] = assay: Induction of apoptosis in human HepG2 cells assessed as late apoptotic cells at 5 uM measured after 24 hrs incubation by Propidium iodide/Annexin V-FITC analysis (reference value: 5.71%); format: functional
HepG2 [12] = assay: Induction of apoptosis in human HepG2 cells assessed as necrotic cells at 5 uM measured after 24 hrs incubation by Propidium iodide/Annexin V-FITC analysis (reference value: 1.14%); format: functional
HepG2 [13] = assay: Disruption of homeostasis of chloride anions in golgi apparatus of human HepG2 cells assessed as increase in fluorescence intensity of 6-methoxy-1-(2-oxo-2-((4-sulfamoylphenyl)amino)ethyl)quinolin-1-ium Bromide measured after 12 hts by CLSM imaging analysis; format: functional, cell-based
HepG2 [14] = assay: Suppression of Golgi structural and functional protein expression in human HepG2 cells assessed as decrease in GM130 protein expression at 20 uM measured after 48 hrs incubation by Western blot analysis; format: cell-based
HepG2 [15] = assay: Suppression of Golgi structural and functional protein expression in human HepG2 cells assessed as decrease in GRASP55 protein expression at 20 uM measured after 48 hrs incubation by Western blot analysis; format: cell-based
HepG2 [16] = assay: Induction of chloride ion influx in human HepG2 cells assessed as effect on lysosomal chloride anions at […] measured after 12 hrs incubation by chloride-sensitive dye MQAE-MP based CLSM imaging analysis; format: functional, cell-based
HepG2 [17] = assay: Disruption of homeostasis of chloride anions in golgi apparatus of human HepG2 cells assessed as increase in fluorescence intensity of 6-methoxy-1-(2-oxo-2-((4-sulfamoylphenyl)amino)ethyl)quinolin-1-ium Bromide at 50 uM measured after 12 hts by CLSM imaging analysis; format: functional, cell-based
HepG2 [18] = assay: Suppression of Golgi structural and functional protein expression in human HepG2 cells assessed as decrease in GM130 protein expression at 5 to 20 uM measured after 48 hrs incubation by Western blot analysis; format: cell-based; conditions: dose 5-20 µM
HepG2 [19] = assay: Suppression of Golgi structural and functional protein expression in human HepG2 cells assessed as decrease in GRASP55 protein expression at 5 to 20 uM measured after 48 hrs incubation by Western blot analysis; format: cell-based; conditions: dose 5-20 µM

Structure (SMILES) | EC50 (Lipid bilayer [1]) | Activity (Lipid bilayer [2]) | Activity (Lipid bilayer [3]) | Activity (Lipid bilayer [4]) | Activity (Lipid bilayer [5]) | Activity (Lipid bilayer [6]) | Activity (Lipid bilayer [7]) | IC50 (A2780) | IC50 (HepG2 [8]) | IC50 (MCF7) | IC50 (HT-29) | IC50 (HCT-8) | also measured
N#Cc1ccc(Nc2c(NCCCCCC(=O)Nc3ccc(S(N)(=O)=O)cc3)c(=O)c2=O)cc1 | 4.57 mol% | Active | Active | Active | Active | Active | Active; Compound Exhibit Anion Transport Activity Most Probably Through Carrier Mechanism | > 50 µM | 38.1 µM | 37.1 µM | 45.1 µM | 31.8 µM | 
COc1cccc2c1C(=O)c1c(O)c3c(c(O)c1C2=O)C[C@@](O)(C(=O)CO)C[C@@H]3O[C@H]1C[C@H](N)[C@H](O)[C@H](C)O1.Cl [DOXORUBICIN HYDROCHLORIDE] |  |  |  |  |  |  |  | 1.03 µM | 0.57 µM | 0.32 µM | 1.22 µM | 1.21 µM | viability at 5 µM (HepG2 [9]): 58.5%; Activity (HepG2 [10]): 16.8%; Activity (HepG2 [11]): 20.7%; Activity (HepG2 [12]): 3.96%
NS(=O)(=O)c1ccc(NC(=O)CCCCCNc2c(Nc3cc(Cl)cc(Cl)c3)c(=O)c2=O)cc1 | 3.44 mol% | Active | Active | Active | Active | Active | Active; Compound Exhibit Anion Transport Activity Most Probably Through Carrier Mechanism | > 50 µM | 20.6 µM | > 50 µM | 40.9 µM | 39.1 µM | 
NS(=O)(=O)c1ccc(NC(=O)CCCCCNc2c(Nc3ccccc3)c(=O)c2=O)cc1 | 9.35 mol% | Active | Active | Active | Active | Active | Active; Compound Exhibit Anion Transport Activity Most Probably Through Carrier Mechanism | 46.9 µM | 26.7 µM | 28.5 µM | 29.6 µM | 22.7 µM | EC50 (HepG2 [13]): 31.1 µM; Activity (HepG2 [14]): Active; Activity (HepG2 [15]): Active
NS(=O)(=O)c1ccc(NC(=O)CCCCCNc2c(Nc3cc([N+](=O)[O-])cc([N+](=O)[O-])c3)c(=O)c2=O)cc1 | 3.08 mol% | Active | Active | Active | Active | Active | Active; Compound Exhibit Anion Transport Activity Most Probably Through Carrier Mechanism | > 50 µM | > 50 µM | > 50 µM | > 50 µM | > 50 µM | 
COc1ccc2c(ccc[n+]2CC(=O)Nc2ccc(S(N)(=O)=O)cc2)c1 |  |  |  |  |  |  |  |  |  |  |  |  | Activity (HepG2 [16]): Active
NS(=O)(=O)c1ccc(NC(=O)CCCCCNc2c(Nc3ccc(F)cc3)c(=O)c2=O)cc1 | 3.76 mol% | Active | Active | Active | Active | Active | Active; Compound Exhibit Anion Transport Activity Most Probably Through Carrier Mechanism | > 50 µM | 33.6 µM | 30.1 µM | 42.1 µM | 36.5 µM | 
NS(=O)(=O)c1ccc(NC(=O)CCCCCNc2c(Nc3ccc([N+](=O)[O-])cc3)c(=O)c2=O)cc1 | 2.86 mol% | Active | Active | Active | Active | Active | Active; Compound Exhibit Anion Transport Activity Most Probably Through Carrier Mechanism | > 50 µM | > 50 µM | > 50 µM | > 50 µM | > 50 µM | 
NS(=O)(=O)c1ccc(NC(=O)CCCCCNc2c(Nc3ccc(Cl)cc3)c(=O)c2=O)cc1 | 5.78 mol% | Active | Active | Active | Active | Active | Active; Compound Exhibit Anion Transport Activity Most Probably Through Carrier Mechanism | > 50 µM | 31.9 µM | 23.6 µM | 33.8 µM | 25.6 µM | 
Cc1ccc(Nc2c(NCCCCCC(=O)Nc3ccc(S(N)(=O)=O)cc3)c(=O)c2=O)cc1 | > 10 mol% | Active | Active | Active | Active | Active | Active; Compound Exhibit Anion Transport Activity Most Probably Through Carrier Mechanism | > 50 µM | 36.7 µM | 33 µM | 47.4 µM | 32.2 µM | 
NS(=O)(=O)c1ccc(NC(=O)CCCCCNc2c(Nc3ccc(C(F)(F)F)cc3)c(=O)c2=O)cc1 | 2.93 mol% | Active | Active | Active | Active | Active | Active; Compound Exhibit Anion Transport Activity Most Probably Through Carrier Mechanism | 21.1 µM | 27.1 µM | > 50 µM | 24.7 µM | 19.2 µM | 
NS(=O)(=O)c1ccc(NC(=O)CCCCCNc2c(Nc3ccc(Br)cc3)c(=O)c2=O)cc1 | 3.06 mol% | Active | Active | Active | Active | Active | Active; Compound Exhibit Anion Transport Activity Most Probably Through Carrier Mechanism | 48.8 µM | 35.9 µM | 15.5 µM | 18.7 µM | 41 µM | 
COc1ccc(Nc2c(NCCCCCC(=O)Nc3ccc(S(N)(=O)=O)cc3)c(=O)c2=O)cc1 | > 10 mol% | Active | Active | Active | Active | Active | Active; Compound Exhibit Anion Transport Activity Most Probably Through Carrier Mechanism | > 50 µM | 41.9 µM | 39.7 µM | 49.5 µM | 44.7 µM | Activity (HepG2 [17]): inactive; Activity (HepG2 [18]): inactive; Activity (HepG2 [19]): Active
